According to paper PMC5971061, “Differential Effects of Linkers on the Activity of Amphiphilic Tobramycin Antifungals” (Molecules : A Journal of Synthetic Chemistry and Natural …, 2018):
≈ marks a conversion by molar mass, not a printed value.

Columns and labels:
[1] = system: C. albicans ATCC 10231 (strain A); assay: MIC, broth microdilution (CLSI M27-A3), yeast strain A; format: cell-based, Candida albicans; details: Candida albicans, ATCC10231; MIC-0, strain A, 35 °C 48 h
Experimental: (§1) The final concentrations of compounds 3, 4, 7a, 7b, 9, and 16, as well as that of TOB tested in this study ranged from 0.24–62.5 μg/mL. CAS was used as a positive control and the final concentrations tested for CAS ranged from 0.03–31.3 μg/mL. Briefly, overnight yeast cultures were grown in yeast peptone dextrose (YPD) broth and the cell density was adjusted to an OD600 of 0.12 (~1 × 10^6 CFU/mL) by using a spectrophotometer. Yeast cell suspensions were further diluted to achieve 1–5 × 10^3 CFU/mL in RPMI 1640 medium, and 100 μL of these yeast cells was added to 96-well microtiter plates containing RPMI 1640 medium and titrated compounds. Each test was performed in triplicate. The plates were incubated at 35 °C for 48 h.

[2] = system: Candida glabrata clinical isolate CG3; assay: MIC, broth microdilution (CLSI M27-A3), CG3; format: cell-based; details: Nakaseomyces glabratus; MIC-0, CG3, 35 °C 48 h
Experimental: as §1

[3] = system: Aspergillus nidulans ATCC 38163 (strain L); assay: MIC, filamentous fungi (CLSI M38-A2), strain L; format: cell-based; details: Aspergillus nidulans, ATCC38163, 72 h, MIC-0, strain L, 35 °C 72 h; read-out: MIC
Experimental: (§2) The spores were harvested from sporulating cultures growing on potato dextrose agar (PDA) by filtration through sterile glass wool and enumerated by using a hemocytometer (Hausser Scientific, Horsham, PA, USA) to obtain the desired inoculum size. Two-fold serial dilutions of compounds 3, 4, 7a, 7b, 9, and 16, as well as CAS and TOB were made in sterile 96-well microtiter plates to obtain the final concentration range of 0.24–62.5 μg/mL for TOB and TOB derivatives as well as 0.03–31.3 μg/mL for CAS in the RPMI 1640 medium. The spore suspensions were added to the wells to afford a final concentration of 5 × 10^5 spores/mL. The plates were incubated at 35 °C for 72 h. […] Each test was performed in triplicate.

[4] = system: Cryptococcus neoformans clinical isolate CN2; assay: MIC, broth microdilution (CLSI M27-A3), CN2; format: cell-based; details: MIC-0, CN2, 35 °C 48 h
Experimental: as §1

[5] = system: C. albicans ATCC 90819(R) (strain D); assay: MIC, broth microdilution (CLSI M27-A3), yeast strain D; format: cell-based; details: Candida albicans, ATCC90819; MIC-0, strain D, 35 °C 48 h
Experimental: as §1

[6] = system: Candida glabrata ATCC 2001 (strain H); assay: MIC, broth microdilution (CLSI M27-A3), yeast strain H; format: cell-based; details: Nakaseomyces glabratus, ATCC2001; MIC-0, strain H, 35 °C 48 h
Experimental: as §1

[7] = system: Candida parapsilosis clinical isolate CP2; assay: MIC, broth microdilution (CLSI M27-A3), CP2; format: cell-based; details: Lodderomyces parapsilosis; MIC-0, CP2, 35 °C 48 h
Experimental: as §1

[8] = system: C. albicans ATCC MYA-1237(R) (strain F); assay: MIC, broth microdilution (CLSI M27-A3), yeast strain F; format: cell-based; details: Candida albicans; MIC-0, strain F, 35 °C 48 h
Experimental: as §1

[9] = system: Cryptococcus neoformans clinical isolate CN1; assay: MIC, broth microdilution (CLSI M27-A3), CN1; format: cell-based; details: MIC-0, CN1, 35 °C 48 h
Experimental: as §1

[10] = system: Aspergillus flavus ATCC MYA-3631 (strain K); assay: MIC, filamentous fungi (CLSI M38-A2), strain K; format: cell-based; details: Aspergillus flavus, 72 h, MIC-0, strain K, 35 °C 72 h; read-out: MIC
Experimental: as §2

[11] = system: C. albicans ATCC MYA-1003(R) (strain G); assay: MIC, broth microdilution (CLSI M27-A3), yeast strain G; format: cell-based; details: Candida albicans; MIC-0, strain G, 35 °C 48 h
Experimental: as §1

[12] = system: Candida parapsilosis ATCC 22019 (strain J); assay: MIC, broth microdilution (CLSI M27-A3), yeast strain J; format: cell-based; details: Lodderomyces parapsilosis, ATCC22019; MIC-0, strain J, 35 °C 48 h
Experimental: as §1

[13] = system: Candida parapsilosis clinical isolate CP1; assay: MIC, broth microdilution (CLSI M27-A3), CP1; format: cell-based; details: Lodderomyces parapsilosis; MIC-0, CP1, 35 °C 48 h
Experimental: as §1

[14] = system: C. albicans ATCC MYA-2310(S) (strain E); assay: MIC, broth microdilution (CLSI M27-A3), yeast strain E; format: cell-based; details: Candida albicans; MIC-0, strain E, 35 °C 48 h
Experimental: as §1

[15] = system: Aspergillus terreus ATCC MYA-3633 (strain M); assay: MIC, filamentous fungi (CLSI M38-A2), strain M; format: cell-based; details: MIC-0, strain M, 35 °C 72 h
Experimental: as §2

[16] = system: C. albicans ATCC 64124 (strain B); assay: MIC, broth microdilution (CLSI M27-A3), yeast strain B; format: cell-based; details: Candida albicans, ATCC64124; MIC-0, strain B, 35 °C 48 h
Experimental: as §1

[17] = system: C. albicans ATCC MYA-2876(S) (strain C); assay: MIC, broth microdilution (CLSI M27-A3), yeast strain C; format: cell-based; details: Candida albicans; MIC-0, strain C, 35 °C 48 h
Experimental: as §1

[18] = system: Candida glabrata clinical isolate CG1; assay: MIC, broth microdilution (CLSI M27-A3), CG1; format: cell-based; details: Nakaseomyces glabratus; MIC-0, CG1, 35 °C 48 h
Experimental: as §1

[19] = system: Cryptococcus neoformans clinical isolate CN3; assay: MIC, broth microdilution (CLSI M27-A3), CN3; format: cell-based; details: MIC-0, CN3, 35 °C 48 h
Experimental: as §1

[20] = system: Candida parapsilosis clinical isolate CP3; assay: MIC, broth microdilution (CLSI M27-A3), CP3; format: cell-based; details: MIC-0, CP3, 35 °C 48 h
Experimental: as §1

[21] = system: seven C. albicans strains (A-G); assay: MIC across the panel of seven C. albicans strains; format: cell-based; details: Candida albicans; across all seven C. albicans strains tested
Experimental: as §1

[22] = system: Candida glabrata clinical isolate CG2; assay: MIC, broth microdilution (CLSI M27-A3), CG2; format: cell-based; details: Nakaseomyces glabratus; MIC-0, CG2, 35 °C 48 h
Experimental: as §1

[23] = system: Candida krusei ATCC 6258 (strain I); assay: MIC, broth microdilution (CLSI M27-A3), yeast strain I; format: cell-based; details: Pichia kudriavzevii, ATCC6258; MIC-0, strain I, 35 °C 48 h
Experimental: as §1

[24] = system: nine non-albicans Candida strains (H-J, CG1-3, CP1-3); assay: MIC across the panel of nine non-albicans Candida strains; format: cell-based, Candida glabrata, Candida krusei, Candida parapsilosis
Experimental: as §1

Hemolytic activity assay = format: cell-based, murine; details: mouse, murine red blood cells (mRBCs), mRBCs, 37 °C 1 h, ± SDEV
Experimental: (§3) The hemolytic activity of compounds 3, 4, 7a, 7b, and 9 as well as the parent compound TOB was determined by using previously described methods with minor modifications. Murine whole blood (1 mL) was suspended in 4 mL of PBS and centrifuged at 1000 rpm for 10 min at room temperature to obtain murine red blood cells (mRBCs). The mRBCs were washed four times in PBS and resuspended in the same buffer to a final concentration of 10^7 erythrocytes/mL. Two-fold serial dilutions of compounds 3, 4, 7a, 7b, and 9 were prepared using 100 μL of PBS buffer in Eppendorf tubes followed by the addition of 100 μL of mRBC suspension that made the final concentration of compounds and mRBCs to be 0.48–62.5 μg/mL and 5 × 10^6 erythrocytes/mL, respectively. The tubes were incubated at 37 °C for 1 h. The tubes with PBS buffer (200 μL) and Triton X-100® (1% v/v, 2 μL) served as the negative (blank) and positive controls, respectively. The percentage of hemolysis was calculated using the following equation: % hemolysis = [(absorbance of sample) − (absorbance of blank)] × 100/(absorbance of positive control).

[25] = system: murine red blood cells (mRBCs); assay: Hemolytic activity assay; format: cell-based; details: 62.5 μg/mL, mRBCs, 37 °C 1 h, ± SDEV
Experimental: as §3

For CCCCCCCCCCCCOCC1OC(OC2C(N)CC(N)C(OC3OC(CN)C(O)CC3N)C2O)C(O)C(N)C1O [Compound 16, O-3-Amino-3-deoxy-6-O-dodecyl-α-D-glucopyranosyl-(1→6)-O-[2,6-diamino-2,3,6-trideoxy-α-D-ribo-hexopyranosyl-(1→4)]-2-deoxy-D-streptamine], the MIC [1] was 62.5 µg/mL (≈ 98.3 µM), the MIC [2] was 62.5 µg/mL (≈ 98.3 µM) and the MIC [3] was 3.9 µg/mL (≈ 6.13 µM). For the same compound, the MIC [4] was 0.975 µg/mL (≈ 1.53 µM), the MIC [5] was 62.5 µg/mL (≈ 98.3 µM) and the MIC [6] was 62.5 µg/mL (≈ 98.3 µM). The MIC [7] was 62.5 µg/mL (≈ 98.3 µM), the MIC [8] was 62.5 µg/mL (≈ 98.3 µM) and the MIC [9] was 1.95 µg/mL (≈ 3.07 µM). For the same compound, the MIC [10] was > 62.5 µg/mL, the MIC [11] was 62.5 µg/mL (≈ 98.3 µM) and the MIC [12] was 31.3 µg/mL (≈ 49.2 µM). For the same compound, the MIC [13] was 62.5 µg/mL (≈ 98.3 µM), the MIC [14] was 62.5 µg/mL (≈ 98.3 µM) and the MIC [15] was > 62.5 µg/mL. For the same compound, the MIC [16] was 62.5 µg/mL (≈ 98.3 µM), the MIC [17] was > 62.5 µg/mL and the MIC [18] was > 62.5 µg/mL. The MIC [19] was 3.9 µg/mL (≈ 6.13 µM), the MIC [20] was 62.5 µg/mL (≈ 98.3 µM) and the MIC [21] was ≥ 62.5 µg/mL. The MIC [22] was 62.5 µg/mL (≈ 98.3 µM), the MIC [23] was 31.3 µg/mL (≈ 49.2 µM) and the MIC [24] was 31.3 to 62.5 µg/mL (≈ 49.2 to 98.3 µM).
Compound C[C@@H]1[C@H](O)[C@@H](C)/C=C/C=C/C=C/C=C/C=C/C=C/C=C/[C@H](O[C@@H]2O[C@H](C)[C@@H](O)[C@H](N)[C@@H]2O)C[C@@H]2O[C@](O)(C[C@@H](O)C[C@@H](O)[C@H](O)CC[C@@H](O)C[C@@H](O)CC(=O)O[C@H]1C)C[C@H](O)[C@H]2C(=O)O [AmB, amphotericin B, reference compound] has a hemolysis at 1 h, 0.48 μg/mL (Hemolytic activity assay; 0.48 μg/mL) of 0%, a hemolysis at 1 h, 0.975 μg/mL (Hemolytic activity assay; 0.975 μg/mL) of 0% and a hemolysis at 1 h, 1.95 μg/mL (Hemolytic activity assay; 1.95 μg/mL) of 1.7 ± 0.1%. It also gave a hemolysis at 1 h, 3.9 μg/mL (Hemolytic activity assay; 3.9 μg/mL) of 3.4 ± 0.6%, a hemolysis at 1 h, 7.8 μg/mL (Hemolytic activity assay; 7.8 μg/mL) of 3.7 ± 0.7% and a hemolysis at 1 h, 15.6 μg/mL (Hemolytic activity assay; 15.6 μg/mL) of 31.9 ± 5.7%. For the same compound, the hemolysis at 1 h, 31.3 μg/mL (Hemolytic activity assay; 31.3 μg/mL) was 80.2 ± 8.5% and the “% hemolysis” value [25] was 90.3 ± 5.7%.
